Experimental data published in US11208405B2, “Pyrrole derivatives as PLK1 inhibitors” (SENTINEL ONCOLOGY LIMITED, priority 2017, dated 2021).
Structures can show the parent of a compound that is named as a salt.

Key:
Type in all cases: cell-based
wild-type HeLa cell line = assay: Wild-type versus KRAS HeLa cell viability: wild-type KRAS transgene; conditions: Homo sapiens; HeLa cells expressing wild-type KRAS, 72 hours; read-out: WT GI50
Method: (§1) Assay to Measure the Effects of Compounds of the Invention on Wild-Type Versus KRAS HeLa Cell Viability
(§2) Identifying synthetic lethal interactions between targeted small molecule therapies and characterised oncogenic mutations is a goal of modern oncology drug discovery efforts. To this end, PLK1-PBD inhibitors were tested on HeLa cells engineered to inducibly express wild-type or oncogenic KrasG12V transgenes using the FLP-in/T-Rex system (Invitrogen). Cells were plated, and then treated with or without Doxycycline to induce transgene expression, and then treated with serially-diluted PBD inhibitors. After 72 hours of incubation, cell viability was assessed using the Cell Titre Blue reagent (Promega) and a BMG Pherastar plate reader. The effect of PBD inhibition on cell viability with either wild-type or oncogenic G12V KRAS was assessed using the graphing/curve-fitting packages in GraphPad Prism.

KRAS G12V HeLa cell line = assay: Wild-type versus KRAS HeLa cell viability: oncogenic KrasG12V transgene; conditions: Homo sapiens; HeLa cells expressing KRAS G12V, 72 hours
Method: as §1, §2

HeLa cells = assay: Arresting cells in mitosis (Mitotic Index, phosphorylated Histone H3 immunofluorescence); conditions: HeLa cell line, 24 hours; for EC50: Homo sapiens, Mitotic Index, read-out: EC50
Method: Assay to Measure the Effects of Compounds of the Invention on Arresting Cells in Mitosis
Inhibiting the ability of PLK1 to bind to its phosphopeptide binding partners through the PBD causes cells to arrest in mitosis. Experimentally, this is measured by assessing the number of cells which are in mitosis at a certain time after treatment with a PLK1-PBD inhibitor by immunofluorescent detection of phosphorylated Histone H3 (pH3), a marker which is only present in mitotic cells. PLK1-PBD inhibitors are expected to cause a dose-dependent increase in pH3-positive cells, which is reported as Mitotic Index (MI)—the percentage of cells which, at a given time, are positive for this mitotic mark. The following protocol has been used to measure MI: • 1. Plate HeLa cells at 10,000/well in 100 μL/well in clear flat-bottom 96-well plates and incubate overnight. • 2. Immediately prior to treatment, dilute compounds in medium in a 96-well round-bottom plate. Make up all compounds at 5 times final desired concentration on cells, and serially dilute 1:2 across the plate ensuring that there is 100 μL of each concentration (start with 200 μl of the top concentration on the left of the plate). […] Treat cells by adding 25 μL from the compound dilution plate to triplicate wells. • 4. Incubate cells with compound for 24 hours. • 5. After 24 hours, fixation and staining is carried out as follows: • 6. Dilute 37% formaldehyde in PBS to give a 12.95% solution by adding 3.5 mL formaldehyde to 6.5 mL of PBS. • 7. Add 50 μL of formaldehyde fixation solution directly to each well of cells (which already contain 125 μL medium). • 8. Incubate at room temp for 10 minutes. • 9. Remove fixative and add 100 μL/well PBS+0.1% Triton X-100 for 10 minutes. • 10. Aspirate and add 100 μL/well PBS+1% BSA. • 11. Aspirate and add 50 μL/well of primary antibody (anti-PH3 [1:2000]/anti-MPM2 [1:1000]) diluted in PBS+1% BSA. Incubate for 1 hour. • 12. Wash×2 with 100 μL/well PBS+1% BSA. • 13. Add 50 μL/well of secondary antibody plus Hoechst stain (anti-rabbit Alexafluor 488 [1:500]; anti-mouse Alexafluor 546 [1:500]+Hoechst 33342 [1:2500 final concentration=4 μg/mL])diluted in PBS+1% BSA. Incubate for 1 hour. • 14. Wash twice with 100 μL/well PBS+1% BSA. • 15. Aspirate and add 100 μL/well PBS. Plates can be stored at 4° C. in PBS for several weeks before scanning on the Cellomics Arrayscan. […] Scan on Cellomics using Target Activation Bioapplication. • 17. MI data emerging from the Cellomic Bioapplication can be used to plot MI versus compound concentration, and subsequently used to generate an EC50 value for each compound using an appropriate graphing/curve-fitting package such as GraphPad Prism.

HCT116 cells = assay: Effects on HCT116 colorectal cancer cell viability (cell titre blue, 72 hours); conditions: Homo sapiens, HCT-116, HCT116 cell line
Method: Assay to Measure the Effects of Compounds of the Invention on HCT116 Colorectal Cancer Cell Viability
The following protocol was used to measure the effects of compounds of the invention on HCT116 cell viability.
1. HCT116 cells were grown in RPM11640 media supplemented with Glutamax and 10% FBS in a 37° C./5% CO2 incubator.
2. Growing culture of HCT116 cells were trypsinised, counted and diluted to give 10,000 cells/mL in an appropriate volume, allowing at least 6 mL of cells per plate.
3. 200 μL of PBS were added to all the outer wells of a flat-bottomed (8×12) 96-well TC plate. 100 μL of media were added only to wells in column 11 of the plates (these wells provided a blank for the cell titre blue assay). Two compounds were assayed on each plate.
4. 100 ul of 10,000 cells/mL HCT116s were plated in rows B-G of each plate.
5. The cells were incubated (37° C. 5% CO2) for 24 hours before treating with compounds.
6. An 8 mM compound stock in DMSO was prepared for all compounds to be tested. 2.5 μL of the compound stock was added to 1000 μL growth medium in a 96-well deep well block and serial dilutions were prepared across the plate by transferring 500 μL into wells containing 500 μL growth medium+0.25% DMSO to give eight concentrations of compound (this ensured a constant amount of DMSO at all concentrations of compound). When making up growth medium+DMSO, an amount of 5 ml was allowed per compound to be diluted.
7. 3 rows of cells were treated with 100 μL/well from each row on the dilution plate so that each cell plate is treated with a single compound. This gave a final volume in all wells of 200 μL and a titration of compound from a final concentration of 10 uM down to 78 nM.
8. The cells were incubated (37° C. 5% CO2) for 72 hours.
9. 5 ul cell titre blue reagent (Promega) were added to all wells except the edge wells (which contain PBS only) and incubated (37° C. 5% CO2) for 2.5-3 hours.
10. Fluorescence was measured on a suitable plate reader using a 530-570 nm filter set for excitation and a 580-620 nm filter set for fluorescence emission.
11. Data were analysed using an appropriate graphing package (such as GraphPad Prism). Data were expressed as the concentration of compound causing a 50% inhibition of cell viability or GI50.

Row | GI50 (wild-type HeLa cell line) [nM] | GI50 (KRAS G12V HeLa cell line) [nM] | EC50 (HeLa cells) [nM] | GI50 (HCT116 cells) [nM] | Compound | % mitotic cells (HeLa cells) [%]
1 | 180 | 50 | 860 | – | CN(C)CCNC(=O)c1cccc(-c2ccc(-c3ccc(Br)cc3)n2-c2ccccc2C(F)(F)F)c1 [Example 2, 3-[5-(4-Bromophenyl)-1-[2-(trifluoromethyl)phenyl]pyrrol-2-yl]-N-[2-(dimethylamino)ethyl]benzamide Hydrochloride] | 86
2 | 50 | 20 | 190 | 30 | CN(C)CCNC(=O)c1ccc(-c2ccc(-c3ccc(Br)cc3)n2-c2ccccc2C(F)(F)F)cc1 [Example 9, 4-[5-(4-Bromophenyl)-1-[2-(trifluoromethyl)phenyl]pyrrol-2-yl]-N-[2-(dimethylamino)ethyl]benzamide Hydrochloride] | 89
3 | 650 | 380 | – | 2180 | CN(C)CCNC(=O)c1ccc(Cl)c(-c2ccc(-c3ccc(Br)cc3)n2-c2ccccc2C(F)(F)F)c1 [Example 15, hydrochloride] | –
4 | 2510 | 3580 | – | 3890 | CN(C)CCNC(=O)c1cccc(-c2ccc(-c3ccc(Br)cc3)n2-c2ccccc2O)c1 [Example 25, hydrochloride] | –
5 | 120 | 70 | – | 120 | CN(C)CCNC(=O)c1ccc(-c2ccc(-c3ccccc3)n2-c2ccccc2C(F)(F)F)cc1 [Example 26, hydrochloride] | –
6 | 60 | 30 | – | – | CN(C)CCNC(=O)c1ccc(-c2ccc(-c3ccc(Br)cc3)n2-c2ccccc2C(F)(F)F)cn1 [Example 28] | –
7 | 130 | 90 | – | 80 | CN(C)CCCNC(=O)c1ccc(-c2ccc(-c3ccc(Br)cc3)n2-c2ccccc2C(F)(F)F)cc1 [Example 34] | –
8 | 210 | 140 | – | 220 | CN(C)CCCOc1ccc(-c2ccc(-c3ccc(Br)cc3)n2-c2ccccc2C(F)(F)F)cc1 [Example 35, hydrochloride] | –
9 | 120 | 60 | – | 30 | CN(C)CCNC(=O)c1ccc(-c2ccc(-c3ccc(Br)cc3)n2-c2ccccc2C(F)(F)F)c(Cl)c1 [Example 36, hydrochloride] | –
10 | 50 | 20 | – | 20 | CN(C)CCNC(=O)c1ccc(-c2ccc(-c3ccccc3)n2-c2ccccc2C(F)(F)F)c(Cl)c1 [Example 37, hydrochloride] | –
11 | 40 | 20 | – | 50 | CN(C)CCNC(=O)c1ccc(-c2ccc(-c3ccc(Br)cc3)n2-c2cnccc2C(F)(F)F)cc1 [Example 41] | –
12 | 130 | 50 | – | 380 | CN(C)CCNC(=O)c1ccc(-c2ccc(-c3ccc(F)nc3)n2-c2ccccc2C(F)(F)F)cc1 [Example 42, hydrochloride] | –
13 | 340 | 220 | – | 560 | COc1ccc(-c2ccc(-c3ccc(Br)cc3)n2-c2ccccc2C(F)(F)F)cc1C(=O)NCCN(C)C [Example 53, hydrochloride] | –
14 | 2190 | 2520 | – | 2710 | CN(C)CCNC(=O)c1cccc(-c2ccc(-c3ccc(Br)cc3)n2-c2ccccc2N)c1 [Example 56, hydrochloride] | –
15 | 50 | 30 | – | 60 | CN(C)CCNC(=O)c1ccc(-c2ccc(-c3ccc(C#N)cc3)n2-c2ccccc2C(F)(F)F)cc1 [Example 57] | –
16 | 30 | 20 | – | 30 | CN(C)CCCNC(=O)c1ccc(-c2ccc(-c3ccc(Cl)cc3)n2-c2ccccc2C(F)(F)F)cc1 [Example 58] | –
17 | 10 | 8 | – | 50 | CN(C)CCNC(=O)c1ccc(-c2ccc(-c3ccc(F)cc3)n2-c2ccccc2C(F)(F)F)cc1 [Example 59, hydrochloride] | –
18 | 30 | 10 | – | 60 | CN(C)CCCNC(=O)c1ccc(-c2ccc(-c3ccc(F)cc3)n2-c2ccccc2C(F)(F)F)cc1 [Example 60, hydrochloride] | –
19 | 20 | 5 | – | 60 | CN(C)CCNC(=O)c1ccc(-c2ccc(-c3ccc(Cl)cc3)n2-c2ccccc2C(F)(F)F)nc1 [Example 61, hydrochloride] | –
20 | 20 | 8 | – | 120 | CN(C)CCCNC(=O)c1ccc(-c2ccc(-c3ccc(Cl)cc3)n2-c2ccccc2C(F)(F)F)nc1 [Example 62, hydrochloride] | –
21 | 5 | 3 | – | 20 | CN1CC[C@@H](NC(=O)c2ccc(-c3ccc(-c4ccc(Cl)cc4)n3-c3ccccc3C(F)(F)F)cc2)C1 [Example 70, hydrochloride] | –
22 | 10 | 5 | – | 20 | CN1CC[C@H](NC(=O)c2ccc(-c3ccc(-c4ccc(Cl)cc4)n3-c3ccccc3C(F)(F)F)cc2)C1 [Example 71, hydrochloride] | –
23 | 30 | 10 | – | 40 | CN(C)CCNC(=O)c1ccc(-n2ncc(-c3ccc(Cl)cc3)c2-c2ccccc2C(F)(F)F)cc1 [Example 82, 4-[4-(4-Chlorophenyl)-5-[2-(trifluoromethyl)phenyl]pyrazol-1-yl]-N-[2-(dimethylamino)ethyl]-benzamide Hydrochloride] | –
24 | 20 | 8 | – | 60 | O=C(NCCN1CCNCC1)c1ccc(-c2ccc(-c3ccc(Cl)cc3)n2-c2ccccc2C(F)(F)F)cc1 [Example 87, hydrochloride] | –
25 | 10 | 5 | – | 10 | CN(C)CCNC(=O)Cc1ccc(-c2ccc(-c3ccc(Cl)cc3)n2-c2ccccc2C(F)(F)F)cc1 [Example 91, hydrochloride] | –
